The values below come from patent US20060276440A1, “Treatment of inflammatory disorders” (priority 2005, published 2006).

Entries after “also recorded” stand apart in the source; their conditions may differ. Read-outs that look alike come from different tables or passages of the source.

For data set [1], the system named is MMP-13. Put plainly: IL-1/OSM-stimulated pro-MMP-13 production in SW-1353 cells (ELISA). In kind it is cell-based, human. To be noted: Homo sapiens. The text has this: To test the compounds identified in the preliminary reporter (luciferase) activity […]® line 4A1 screen for inhibition of OSM signaling in a more physiologically relevant environment, a human cell line involved in an inflammatory disease was adapted. The human cartilage cell line SW-1353 was selected.
In the human cartilage cell line SW-1353, while IL-1 is believed to activate expression of collagenases to a small degree and OSM is believed to have no effect on collagenase expression, a combination of IL-1 and OSM is believed to lead to a synergistic activation of collagenases to much higher levels (S. Cowell et al., Biochem J 331 (Pt 2), 453 (Apr. 15, 1998). Regulation of MMP-13 in SW-1353 cells is, therefore, believed to provide a biomarker which can be used to monitor IL-1/OSM-mediated signal transduction events in secondary assays.
The same supernatants of culture media used in the primary screen were assayed for IL-1/OSM-stimulated pro-MMP-13 production and MMP-2 production by enzyme-linked immunosorbent assay (ELISA).
For matrix metalloproteinase (MMP) measures, SW1353 cells were grown to confluence in 24 well plates, washed in DMEM (with Ham's F12) and placed in 500 ul of serum free DMEM/F-12 with 0.2% lactalbumin hydrosylate with and without OsM/IL-1. After 24 hrs, supernatants were collected and the amounts of proMMP13, totalMMP2, and proMMP1 were measured using Quantikine® ELISA kit for human MMPs (R & D systems, Minneapolis, Minn.). All MMP measures were normalized to viable cell numbers based on a tetrazolium (MTS) colorimetric measure (Promega, Madison, Wis.).

In a further data set the test system is OSM signaling. Put plainly: OSM-responsive SW1353 Sentinel cell line luciferase reporter. In kind it is cell-based, human. To be noted: FIG. 12C, listed as CA4. The source says:
Taken together, it appears that CA4 interferes as well with OSM signal transduction that led to the synergistic upregulation of pro-MMP-13 by OSM/IL-1 in SW1353 cells.
In general terms: A reporter such as luciferase makes a cellular process visible.

In data set [2] the test system is MMP-13. Put plainly: OSM-stimulated pro-MMP-13 production in dedifferentiated primary chondrocytes. In kind it is cell-based. Particulars: FIG. 12D, listed as CA4.
In another data set the test system is CD3. Put plainly: GFP-reporter Jurkat T-cell line, anti-CD3 antibody-upregulated reporter. To be noted: at 20 nM; data not shown. In kind it is cell-based.
In data set [3] the test system is JAK/STAT pathway (STAT 1, 3, 5). Put plainly: STAT phosphorylation (FACS) and nuclear translocation (immunostaining) in SW1353 cells. In kind it is cell-based, human. To be noted: 20 nM, OSM/IL-1 activation. The method, then: SW1353 cells were seeded and treated as described above. For the flow cytometric analysis of intracellular phopho-proteins, trypsinized SW1353 cells were fixed in 1.5% formaldehyde at room temperature (RT), and permeabilized in ice cold methanol for minimum of 10 minutes. After 2× wash in wash buffer (D-PBS, with 1% FBS), cells were stained with phospho-specific antibodies (5 ug/ml final) for 20 minutes, washed 2× in wash buffer, followed by 20 minutes incubation with phycoerythrin-conjugated anti-mouse IgG (10 ug/ml final). Following 2× wash in wash buffer, cells were analyzed by flow cytometry.
For immunohistochemistry of intracellular phospho-proteins, fixation and permeabilization conditions were identical to the ones used for flow cytometric analysis. For the visualization of the phosphor-specific proteins, ImmPRESS Universal Antibody kit (Vector Laboratories, Burlingame, Calif.) was used.
The cellular and molecular mechanisms by which CA4 repressed pro-MMP-13 production, using SW1353 as the model system were investigated. […] The pathways that mediate OSM and IL-1 signal transduction were then examined. Using inhibitors that target key components of the pathways, it was shown that JAK/STAT, p38, JNK, and NF-κB pathways were important for OSM/IL-1-stimulated pro-MMP-13 production (FIG. 13B-E), but not ERK or Cox1/2 pathways (data not shown). […]

Data set [4] relates to murine collagen-induced arthritis (CIA) model. Put plainly: Murine collagen-induced arthritis (CIA) model. In kind it is in vivo. On the procedure: Male 6-8 week old B10RIII (Jackson Labs) mice were immunized at day 0, followed by a booster immunization on day 15.
Clinical scores started on day 16 and continued daily. Mice were sacrificed on day 26. Clinical scores of mouse paws were based on a 0-5 scoring system with 0 being normal and 5 being the most severe edema and erythema conditions. ELISAs on collected plasma samples were performed using commercial kits: IL-1β (R & D systems, Minneapolis, Minn.), anti-collagen II (Chondrex, Redmont, Wash.), and Rheumatoid Factors (IgG) (Alpha Diagnostic International, San Antonio, Tex.).
CA4 at 50, 33, and 0 (vehicle) mg/ml in osmotic pumps (0.5 ul/hr; equivalent to 25, 16 and 0 mg/kg/day) was administered subcutaneously to murine collagen-induced arthritis model usin ghte B10RIII strain 12 days after the 1st immunization (day 0) of type II collagen. […] Dexamethasone at 0.2 mg/kg was injected daily subcutaneously as a positive control.

Data set [5] in a line: Plasma concentration of CA4 from osmotic pump by LC/MS. In kind it is in vivo, mouse. To be noted: 33 mg/ml dose by the pump (16 mg/kg/day), day 3 and 7. On the procedure:
CA4 at 50, 33, and 0 (vehicle) mg/ml in osmotic pumps (0.5 ul/hr; equivalent to 25, 16 and 0 mg/kg/day) was administered subcutaneously to murine collagen-induced arthritis model usin ghte B10RIII strain 12 days after the 1st immunization (day 0) of type II collagen. The 33 mg/ml dose by the pump produced a plasma concentration of CA4 of approximately 30 nM on day 3 and 7 as measured by LC/MS. Dexamethasone at 0.2 mg/kg was injected daily subcutaneously as a positive control.

The conditions of data set [6]: Kirwan et al. 2004; cited from earlier work.

On to `COc1ccc(/C=C\c2cc(OC)c(OC)c(OC)c2)cc1O` [Combretastatin A4 (1), (Z)-5-(3,4,5-trimethoxystyryl)-2-methoxyphenol], for which the IC50 was 2 nM with MMP-13 [1] (SW1353, SW-1353, IL-1/OSM-stimulated, secondary screen (Example 2), read-out: IC50, inhibition of MMP-13 (pro-MMP-13) production) and 5.6 ± 1.3 nM in the data set with MMP-13 [1] (SW1353 cells, mean (Examples 8, 10), read-out: IC50 values by pro-MMP-13 (OSM/IL-1-mediated production)). Moreover, the “OSM-induced reporter luciferase activity” value in the data set with OSM signaling is on record as “dose-dependently inhibited the reporter luciferase activity”. In addition, in the data set with MMP-13 [2], the “OSM-stimulated pro-MMP-13 production” value was “inhibited OSM-stimulated pro-MMP-13 production dose-dependently”. The “effect on CD3-mediated increase of GFP fluorescence” value in the data set on CD3 is listed as “did not have any effect”. In addition, the “STAT 1, 3, 5 phosphorylation” value in data set [3] (FACS) is recorded as “did not affect”. The STAT nuclear translocation entry in data set [3] (immunostaining) was “did not affect”. Moreover, the knee joint histopathology entry in data set [4] (16 mg/kg/day by osmotic pumps) is “intermediate joint histopathological damages”; in data set [4] (25 mg/kg/day by osmotic pumps), “only minimal synovitis, minimal proteoglycan and cartilage loss, few infiltrated inflammatory cells, and no panus formation or bone resorption”. Further, the survival entry in data set [4] (16 mg/kg/day group, by day 22) is given as “All of the mice in the 16 mg/kg/day group survived”. The mice died entry in data set [4] (25 mg/kg/day group, by day 22) was “Eight of 15”. Also, in data set [4] (25 and 16 mg/kg/day s.c. osmotic pumps vs vehicle, day 15-22, listed as CA4), the arthritis incidence rate result is “dose-dependently reduced the arthritis incidence rate”. In addition, the “macroscopic arthritis clinical scores of the paws” value in data set [4] (25 and 16 mg/kg/day s.c. osmotic pumps, listed as CA4) was “reduced the symptomatic macroscopic scores of the paws; also recorded: significantly reduced macroscopic arthritis clinical scores”. Also, the body weight entry in data set [4] (CA4 treatment by osmotic pumps, FIG. 15C) is on record as “without dramatically affecting body weight”. Further, the “reduction of plasma IL-1β levels” value in data set [4] (both CA4-treated groups (25, 16 mg/kg/day), ELISA) was “more than 50%”. Further, in data set [4] (both doses of CA4 (25, 16 mg/kg/day), plasma ELISA), the “titers of Rheumatoid Factors” value was “improved significantly to lower levels”. In addition, the “anti-type II collagen antibody titer” value in data set [4] (higher dose of CA4 (25 mg/kg/day), plasma ELISA) was “significantly, albeit modestly, reduced”. For the same compound, in data set [5], the plasma concentration entry is given as “approximately 30 nM”. Also, the “half time in mouse plasma” value in data set [6] was “approximately 0.5 hour”.
